Measured values as given in patent publication US12414996B2, “Organic anion transporting peptide-based cancer imaging and therapy” (Da Zen Theranostics, Inc., priority 2014, dated 2025).

Assays:
cancer = assay: In vivo cancer targeting of heptamethine cyanine dye derivatives (Nuclear/NIR imaging); conditions: tumor specific uptake by Nuclear/NIR imaging
Text: The inventor synthesized several heptamethine cyanine dye derivatives (Table 1) and evaluated the tumor specific uptake using Nuclear/NIR imaging.

H358 = assay: Tumor cell growth inhibition IC50, H358; type: cell-based; conditions: Lung Cancer cell line H358; read-out: Half maximal inhibitory concentration (IC50) H358
Text: (§1) In addition to DZ-1-Gem, some agents of the invention may include other antitumor active moieties, such as cisplatin. For example, the tumor cell growth inhibition activities of DZ-1 linked with cisplatin (“DZ-1-cisplatin”) were compared with those of cisplatin alone in various tumor cells, including prostate, breast, renal, kidney, and lung cancer cell lines.

Hep G2 = assay: Tumor cell growth inhibition IC50, Hep G2; type: cell-based; conditions: Hepatic Cancer cell line Hep G2; read-out: Half maximal inhibitory concentration (IC50) Hep G2
C4-2B [1] = assay: Tumor cell growth inhibition IC50, C4-2B; type: cell-based; conditions: Prostate Cancer cell line C4-2B; read-out: Half maximal inhibitory concentration (IC50) C4-2B
Text: as §1

ACHN = assay: Tumor cell growth inhibition IC50, ACHN; type: cell-based; conditions: Renal Cancer cell line ACHN; read-out: Half maximal inhibitory concentration (IC50) ACHN
Text: as §1

LNCaP [2] = assay: Tumor cell growth inhibition IC50, LNCaP; type: cell-based; conditions: Prostate Cancer cell line LNCaP; read-out: Half maximal inhibitory concentration (IC50) LNCaP
Text: as §1

PC3 = assay: Tumor cell growth inhibition IC50, PC3; type: cell-based; conditions: Prostate Cancer cell line PC3; read-out: Half maximal inhibitory concentration (IC50) PC3
Text: as §1

C4-2B [3] = assay: Cytotoxicity (IC50) on cancer cell growth in vitro, C4-2B; type: cell-based, human; conditions: C4-2B prostate cancer cells in culture
PC-3 = assay: Cytotoxicity (IC50) on cancer cell growth in vitro, PC-3; type: cell-based, human; conditions: PC-3 prostate cancer cells in culture
LNCaP [4] = assay: Cytotoxicity (IC50) on cancer cell growth in vitro, LNCaP; type: cell-based, human; conditions: LNCaP prostate cancer cells in culture
BX-PC3 = assay: Cytotoxicity (IC50) on cancer cell growth in vitro, BX-PC3; type: cell-based, human; conditions: BX-PC3 pancreatic cancer cells in culture
C4-2 = assay: Cytotoxicity (IC50) on cancer cell growth in vitro, C4-2; type: cell-based, human; conditions: C4-2 prostate cancer cells in culture
MiaPaCa II = assay: Cytotoxicity (IC50) on cancer cell growth in vitro, MiaPaCa II; type: cell-based, human; conditions: MiaPaCa II pancreatic cancer cells in culture
pancreatic PDX tumors = assay: Uptake of NIR dye by pancreatic PDX tumors implanted in mouse subrenal capsules; type: in vivo; conditions: subrenal capsule implant
Text: (A) NIR fluorescent imaging of mouse bearing human pancreatic PDX tumors in subrenal capsules (excitation: 783 nm; […] nm) (B) Ex vivo bright field and NIR fluorescent imaging of pancreatic PDX tumors in the kidney capsules and other organs harvested from mouse and (C) the NIR fluorescent intensity was quantified for the tumor and for each organ (total radiance efficiency [p/s]/[μW/cm^2]) (D) Fluorescent microscopy of DAPI, NIR, and merged images of frozen section of pancreatic PDX tumor in the kidney capsule. White dash line outlines the mouse kidney and red dash line outlines the pancreatic PDX tumor.
The uptakes of NIR dye MHI-148, by pancreatic patient-derived xenografts (PDX) tumors implanted in mouse subrenal capsules were investigated. […] White dash line outlines the mouse kidney and red dash line outlines the pancreatic PDX tumor.

prostate PDX tumors = assay: Uptake of NIR dye by prostate PDX tumors implanted in mouse subrenal capsules; type: in vivo; conditions: i.p., imaging after 48 hours, excitation 783 nm, emission 840 nm
Method: (A) Representative NIR fluorescence imaging of control mouse with no tumor and mouse with sham-operation and PCa implantation in the subrenal capsules of the kidneys. Mice were injected i.p with NIR dye, MHI-148, 48 hours before fluorescence imaging at excitation of 783 nm and emission of 840 nm. […] (B) Representative ex vivo NIR fluorescence imaging of kidneys with sham operation and PCa tumor implantations. NIR fluorescence signal was only detected in the growing PCa tumors implanted in the subrenal capsule of the right kidney. (C) Fluorescent microscopy of DAPI, NIR, and merged images of frozen sections of the human PCa tumor and the mouse kidney from the subrenal xenograft model (200× magnification) (D) Representative H&E staining of the PCa tumors implanted in the mouse kidney capsule (40× magnification; inlet: 400× magnification).
The uptakes of NIR dye MHI-148 by prostate PDX tumors implanted in mouse subrenal capsules were investigated. […] Mice were injected i.p with NIR dye, MHI-148. After 48 hours, fluorescence imaging was performed with an excitation of 783 nm and emission of 840 nm. […] NIR fluorescence signal was only detected in the growing prostate cancer tumors implanted in the subrenal capsule of the right kidney.

MCF-7 = assay: Tumor cell growth inhibition IC50, MCF-7; type: cell-based; conditions: Breast Cancer cell line MCF-7; read-out: Half maximal inhibitory concentration (IC50) MCF-7
Text: as §1

[5] = tested on: prostate cancer PC3 tumors; assay: Uptake by prostate cancer PC3 tumors in mice (NIR imaging); type: in vivo; conditions: for uptake by PC3 tumor in mice: 100 nmole i.p., imaged 48 hours thereafter
[6] = tested on: CW22Rv1 prostate tumor brain metastases; assay: Survival of mice bearing CW22Rv1 prostate tumor brain metastases (Kaplan-Meier); type: in vivo; conditions: 10 mg/kg, twice a week; p<0.001 (log-rank test) vs vehicle
Text: (§2) IR-783 was used a positive control in parallel. Scale bar represents 50 μm.

MIAPaCa tumors = conditions: 10 mg/kg; subcutaneous luc-tagged MIAPaCa tumors; in vivo and ex vivo imaging
[7] = tested on: prostate cancer PC3 cells; conditions: DZ-1-gemcitabine 10 mg/kg vs gemcitabine 2.5 mg/kg, twice a week i.p.
Text: (§3) Arrows indicate the onset of treatments. * p<0.05; ** p<0.01; *** p<0.001.
as §3

pancreatic MIAPaCa cells = conditions: DZ-1-gemcitabine 10 mg/kg vs gemcitabine 2.5 mg/kg, twice a week i.p.
Text: as §3, §3

U87 cells [8] = conditions: 5 μM, 10 min
Method: (§4) (A) Uptake of DZ-1-Gem (5 μM, 10 min) by U87 and CW22Rv1 cells. IR-783 was used a positive control in parallel. Scale bar represents 50 μm. (B) Proliferation of U87 cells treated with vehicle, gemcitabine (200 nM) or DZ-1-Gem (200 nM) for 4 consecutive days.
as §2

CW22Rv1 cells = conditions: 5 μM, 10 min
Method: as §4, §2

U87 cells [9] = conditions: 200 nM, 4 consecutive days
Method: as §4
(§5) In these experiments, cells were fixed and stained with crystal violet, and OD value at the wavelength of 595 nm was determined (n=5 for each experimental group, mean±SEM) *p<0.05, **p<0.01.

intracranial U87 tumor = conditions: 10 mg/kg, twice a week
Method: as §4, §5

CC1(C)C(/C=C/C2=C(Cl)C(=C/C=C3/N(CCCCCC(=O)O)c4ccccc4C3(C)C)/CCC2)=[N+](CCCCS(=O)(=O)[O-])c2ccccc21
Cancer targeting (cancer): Positive

CC1(C)C(/C=C/C2=C(SCCC(=O)Nc3ccn(C4OC(CO)C(O)C4(F)F)c(=O)n3)C(=C/C=C3/N(CCCCS(=O)(=O)O)c4ccccc4C3(C)C)/CCC2)=[N+](CCCCS(=O)(=O)[O-])c2ccccc21 (stereo not drawn)
Cancer targeting (cancer): Negative

CC1(C)C(/C=C/C2=C(Cl)C(=C/C=C3/N(CCCCCC(=O)O)c4ccccc4C3(C)C)/CCC2)=[N+](CCCCCC(=O)O)c2ccccc21
Cancer targeting (cancer): Positive

CC1(C)C(/C=C/C2=C(NCCCC(=O)O)C(=C/C=C3/N(CCCCS(=O)(=O)O)c4ccccc4C3(C)C)/CCC2)=[N+](CCCCS(=O)(=O)[O-])c2ccccc21
Cancer targeting (cancer): Negative

CC1(C)C(/C=C/C2=C(Cl)C(=C/C=C3/N(CCCCS(=O)(=O)O)c4ccccc4C3(C)C)/CCC2)=[N+](CCCCS(=O)(=O)[O-])c2ccccc21
Cancer targeting (cancer): Positive

CC1(C)C(/C=C/C2=C(Cl)C(=C/C=C3/N(CCCCCC(=O)NCCCCC(NC(=O)CN4CCN(CC(=O)O)CCN(CC(=O)O)CCN(CC(=O)O)CC4)C(=O)O)c4ccccc4C3(C)C)/CCC2)=[N+](CCCCS(=O)(=O)[O-])c2ccccc21 (stereo not drawn)
Cancer targeting (cancer): Positive

CC1(C)C(/C=C/C2=C(Cl)C(=C/C=C3/N(CCCCCC(=O)Nc4ccn(C5OC(CO)C(O)C5(F)F)c(=O)n4)c4ccccc4C3(C)C)/CCC2)=[N+](CCCCS(=O)(=O)[O-])c2ccccc21 (stereo not drawn)
Cancer targeting (cancer): Positive

CC1(C)C(/C=C/C2=C(Cl)C(=C/C=C3/N(CCCCCC(=O)Nc4ccc(CC5CN(CC(=O)O)CCN(CC(=O)O)CCN5CC(=O)O)cc4)c4ccccc4C3(C)C)/CCC2)=[N+](CCCCS(=O)(=O)[O-])c2ccccc21 (stereo not drawn)
Cancer targeting (cancer): Positive

CC1(C)C(/C=C/C2=C(SCCCC(=O)O)C(=C/C=C3/N(CCCCS(=O)(=O)O)c4ccccc4C3(C)C)/CCC2)=[N+](CCCCS(=O)(=O)[O-])c2ccccc21
Cancer targeting (cancer): Negative

CCC(=[N][Pt]([NH2])([NH2])[Cl])N(C)CCNC(=O)CCCCCN1/C(=C/C=C2\CCCC(/C=C/C3=[N+](CCCCS(=O)(=O)[O-])c4ccccc4C3(C)C)=C2Cl)C(C)(C)c2ccccc21
Cancer targeting (cancer): Positive

N.N.[Cl][Pt][Cl] [Cisplatin, reference compound]
IC50 (H358): > 50 µM
IC50 (Hep G2): > 50 µM
IC50 (C4-2B [1]): > 50 µM
IC50 (ACHN): 28.7 µM
IC50 (LNCaP [2]): > 50 µM
IC50 (PC3): > 50 µM

C#CCN(C)CCCOc1ccc(Cl)cc1Cl [Clorgyline]
IC50 (C4-2B [3]): 114 µM
IC50 (PC-3): 120 µM
IC50 (LNCaP [4]): 81 µM

CC(=O)O[C@@]12CO[C@@H]1C[C@H](O)[C@@]1(C)C(=O)[C@H](O)C3=C(C)[C@@H](OC(=O)[C@H](O)[C@@H](NC(=O)OC(C)(C)C)c4ccccc4)C[C@@](O)([C@@H](OC(=O)c4ccccc4)[C@H]21)C3(C)C [Docetaxel]
IC50 (BX-PC3; Homo sapiens, BXPC-3): 0.007 µM
IC50 (C4-2; Homo sapiens): 3.2 µM
IC50 (PC-3; Homo sapiens): 0.33 µM
IC50 (MiaPaCa II; Homo sapiens, MIA PaCa-2): 0.006 µM
IC50 (LNCaP [4]; Homo sapiens): 0.01 µM

Nc1ccn([C@@H]2O[C@H](CO)[C@@H](O)C2(F)F)c(=O)n1 [Gemcitabine]
IC50 (BX-PC3; Homo sapiens, BXPC-3): 0.135 µM
IC50 (C4-2; Homo sapiens): 0.085 µM
IC50 (PC-3; Homo sapiens): 0.38 µM
IC50 (MiaPaCa II; Homo sapiens, MIA PaCa-2): 0.022 µM
IC50 (LNCaP [4]; Homo sapiens): 0.25 µM

CC1(C)C(/C=C/C2=C(Cl)C(=C/C=C3\N(CCCCCC(=O)O)c4ccccc4C3(C)C)/CCC2)=[N+](CCCCCC(=O)O)c2ccccc21 [MHI-148]
uptake of NIR dye in pancreatic PDX tumor vs mouse kidney (fluorescent microscopy of frozen section) (pancreatic PDX tumors): Only the pancreatic tumor uptakes the NIR dye
NIR fluorescence signal (uptake) in prostate PDX tumor vs sham-operated kidney and control mouse (prostate PDX tumors): Only the prostate cancer tumor implanted in the subrenal capsule of the right kidney showed the NIR fluorescence signal

IR-783-N1-methylethylenediamine-cisplatin [DZ-1-cisplatin]
IC50 (H358): 4.95 µM
IC50 (Hep G2): > 50 µM
IC50 (MCF-7): 13.1 µM
IC50 (C4-2B [1]): 15.9 µM
IC50 (ACHN): 4.03 µM
IC50 (LNCaP [2]): 21.6 µM
uptake by PC3 tumor in mice [5]: accumulate only in the tumor cells, but not in the normal organs
IC50 (PC3): 7.57 µM

IR-783-gemcitabine [DZ-1-gemcitabine]
IC50 (BX-PC3): 0.23 µM
survival of mice [6]: significantly improved survival
uptake by MIAPaCa tumors vs normal organs (MIAPaCa tumors): specifically by prostate and pancreatic tumors but not normal organs
IC50 (C4-2): 0.093 µM
IC50 (PC-3): 0.42 µM
IC50 (MiaPaCa II): 0.085 µM
IC50 (LNCaP [4]): 0.34 µM
uptake by PC3 tumor in mice [5]: accumulate only in the tumor cells, but not in the normal organs
uptake by PC3 tumors vs normal organs ([5]; 10 mg/kg, subcutaneous luc-tagged PC3 tumors, in vivo and ex vivo imaging): specifically by prostate and pancreatic tumors but not normal organs
prevention and inhibition of subcutaneous PC3 tumor growth (tumor volume) [7]: more effective than Gemcitabine
prevention and inhibition of subcutaneous MIAPaCa tumor growth (tumor volume) (pancreatic MIAPaCa cells): more effective than Gemcitabine
uptake by U87 cells (U87 cells [8]): readily taken up
uptake by CW22Rv1 cells (CW22Rv1 cells): readily taken up
inhibition of U87 cell proliferation (U87 cells [9]): as effective as Gem
intracranial U87 tumor growth (bioluminescence) (intracranial U87 tumor): effectively suppressed tumor growth, resulting in no bioluminescence
